Activity calls are given as the source filed them. No cut-off for these calls is given here.
Columns and labels:
[1] = target: T1, Falcipain 2 (Plasmodium falciparum, UniProt Q9N6S8); experiment: Inhibition of recombinant Plasmodium falciparum falcipain-2 expressed in bacterial expression system using ZFR-AMC as substrate measured for 30 mins by fluorimetric assay
T1 sequence (Q9N6S8 whole entry): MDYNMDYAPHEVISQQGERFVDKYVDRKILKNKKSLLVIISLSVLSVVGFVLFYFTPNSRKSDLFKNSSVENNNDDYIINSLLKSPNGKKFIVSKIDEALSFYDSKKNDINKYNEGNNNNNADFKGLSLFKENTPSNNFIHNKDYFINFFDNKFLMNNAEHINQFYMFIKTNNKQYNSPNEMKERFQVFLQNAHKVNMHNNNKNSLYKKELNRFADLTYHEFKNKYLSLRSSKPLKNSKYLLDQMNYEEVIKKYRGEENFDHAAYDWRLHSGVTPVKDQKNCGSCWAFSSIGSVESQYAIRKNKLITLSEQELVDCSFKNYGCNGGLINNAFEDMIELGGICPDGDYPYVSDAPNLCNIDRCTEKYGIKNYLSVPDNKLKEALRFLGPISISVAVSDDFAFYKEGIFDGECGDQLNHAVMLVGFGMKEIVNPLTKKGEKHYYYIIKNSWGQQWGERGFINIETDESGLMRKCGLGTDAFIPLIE

[2] = target: T2, Falcipain 2 (Plasmodium falciparum) (UniProt Q9N6S8); experiment: Inhibition of recombinant Plasmodium falciparum falcipain-2 expressed in bacterial expression system using ZFR-AMC as substrate at 100 uM measured for 30 mins by fluorimetric assay relative to control
T2 sequence (whole entry): T1 sequence (Q9N6S8 whole entry)

[3] = target: T3, Cysteine protease falcipain-3 (Plasmodium falciparum, UniProt Q9NAW4); experiment: Inhibition of recombinant Plasmodium falciparum falcipain-3 expressed in bacterial expression system using ZFR-AMC as substrate measured for 30 mins by fluorimetric assay
T3 sequence (Q9NAW4 whole entry): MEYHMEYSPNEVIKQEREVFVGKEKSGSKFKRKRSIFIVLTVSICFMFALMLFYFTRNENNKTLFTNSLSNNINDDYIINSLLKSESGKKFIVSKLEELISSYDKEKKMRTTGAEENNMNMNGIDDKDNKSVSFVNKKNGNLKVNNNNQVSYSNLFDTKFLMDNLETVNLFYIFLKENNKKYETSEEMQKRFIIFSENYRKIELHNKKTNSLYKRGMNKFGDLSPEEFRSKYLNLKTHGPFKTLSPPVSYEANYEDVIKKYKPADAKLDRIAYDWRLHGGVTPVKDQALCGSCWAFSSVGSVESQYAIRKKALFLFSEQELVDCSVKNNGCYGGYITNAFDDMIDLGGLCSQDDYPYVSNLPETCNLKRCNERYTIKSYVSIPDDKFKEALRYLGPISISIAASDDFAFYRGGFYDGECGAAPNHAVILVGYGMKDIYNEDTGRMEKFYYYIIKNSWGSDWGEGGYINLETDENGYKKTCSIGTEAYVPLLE

[4] = tested on: Plasmodium falciparum; experiment: Antimalarial activity against Plasmodium falciparum 3D7 infected in human erythrocytes assessed as increase in arrest of ring stage at 100 uM incubated for 54 hrs by giemsa staining based light microscopy relative to control; assay type: functional
[5] = target: T4, Cysteine protease falcipain-3 (Plasmodium falciparum) (UniProt Q9NAW4); experiment: Inhibition of recombinant Plasmodium falciparum falcipain-3 expressed in bacterial expression system using ZFR-AMC as substrate at 100 uM measured for 30 mins by fluorimetric assay relative to control
T4 sequence (whole entry): T3 sequence (Q9NAW4 whole entry)

[6] = tested on: Plasmodium falciparum; experiment: Antimalarial activity against Plasmodium falciparum 3D7 infected in human erythrocytes assessed as morphological abnormalities at 10 uM incubated for 54 hrs by giemsa staining based light microscopy; assay type: functional, organism-based
[7] = tested on: Plasmodium falciparum; experiment: Antimalarial activity against Plasmodium falciparum 3D7 infected in human erythrocytes assessed as food-vacoules abnormalities at 10 uM incubated for 54 hrs by giemsa staining based light microscopy; assay type: functional, organism-based
[8] = tested on: Plasmodium falciparum; experiment: Antimalarial activity against Plasmodium falciparum 3D7 infected in human erythrocytes assessed as increase in arrest of ring stage at 100 uM measured after 46 hrs by giemsa staining based light microscopy; assay type: functional, organism-based
[9] = tested on: Plasmodium falciparum; experiment: Antimalarial activity against Plasmodium falciparum 3D7 infected in human erythrocytes assessed as increase in arrest of ring stage at 100 uM incubated for 46 hrs by giemsa staining based light microscopy; assay type: functional, organism-based

SMILES	inhibition [2]	inhibition [5]	further results
O=C(NCCCNC(=O)c1cc2ccccc2[nH]1)c1ccc(-c2ccccc2)cc1	51%	62%	IC50 [1]: 12.2 µM; IC50 [3]: 8.56 µM; Activity [4]: 100%
CCc1ccc(NC(=O)CN2CCN(c3nc4ccccc4s3)CC2)cc1	43%	26%	
O=C1CCc2cc(CNC(=O)Cn3ncc4ccccc4c3=O)ccc2C1	42%	41%	
O=C(Nc1ccc([C@@H]2C=c3ccccc3=N2)cc1)[C@@H]1CCCN1C1CCOCC1	46%	50%	
CC(C)C[C@H](NC(=O)[C@H]1O[C@@H]1C(=O)O)C(=O)NCCCCN=C(N)N			Activity [6]: Active; Activity [7]: Active
Cc1ccc(NC(=O)CN2CCC[C@H](c3nc4ccccc4o3)C2)cc1C	41%	9%	
O=C1C[C@H](C(=O)Nc2ccccc2)NC(N2CCN(Cc3ccccc3)CC2)=N1	44%	17%	
O=C(NCCCn1nc2n(c1=O)CCCC2)c1cc2c(cc1O)CCCC2	42%	15%	
O=C1CN(CC(=O)NC2CCOc3ccccc32)CCN1 (stereo unspecified)	25%	25%	
O=C(CN1CCC(c2ccccc2)C1)NC1CCC2(CC1)OCCO2 (stereo unspecified)	22%	69%	
O=C(CN1CCN(C2=NCCC=N2)CC1)Nc1cccc2ccccc12	19%	21%	
Cc1ccc(NCC(=O)NC2CC2)cc1S(=O)(=O)C1CCCCC1	19%	6%	
O=C(CCC1=CC(=O)C2C(=N1)SC1=C2CCCC1)NC1CCCCNC1=O (stereo unspecified)	49%	39%	
Cc1cccc(O)c1OC1CCN(CC(=O)Nc2ccc(CN3CCOCC3)cc2)CC1	43%	25%	
O=C(CNC(=O)N1CCN(Cc2ccccc2)CC1)NC1=CC2=CC=N[C@@H]2C=C1	39%	15%	
CN1CCCc2cc(CCNC(=O)C(=O)Nc3ccc4c(c3)OCO4)ccc21	53%	61%	IC50 [1]: 14.7 µM; Activity [8]: inactive; IC50 [3]: 9.98 µM; Activity [9]: Active
O=C(CN1CCC(C2N=c3ccccc3=N2)CC1)Nc1cccc2ccccc12	47%	49%	

— ChEMBL document CHEMBL4609980, “Identification of antimalarial leads with dual falcipain-2 and falcipain-3 inhibitory activity” (Bioorg Med Chem, 2020)
